For experiment [1], the target named is T1, D1 dopamine receptors (Rattus norvegicus, UniProt P18901).
T1 construct: Striatal samples from the brains of male Charles River CD rats; from tissue; host or cells: striatum of male Charles River CD rats (washed membrane pellet)
Briefly: D1 dopamine receptor binding: inhibition of tritiated SCH 23390 binding, rat striatal samples. On the set-up: species or system rat (male Charles River CD rats). The note with it: rat striatum, tritiated SCH 23390, pH 7.4, 37° C., 30 minutes. Here is the method: (§1) Striatal samples from the brains of male Charles River CD rats weighing between 140-250 g were homogenised in ice-cold 50 mM Tris-HCl buffer (pH 7.4 when measured at 25° C. for D1 binding assays and pH 7.7 when measured at 25° C. for D2 binding assays) and centrifuged for 10 minutes (at 21,000 g when used for D1binding assay and 40,000 g when used for D2binding assays). The pellet was resuspended in the same buffer, again centrifuged and the final pellet stored at -80° C. Before each test the pellet was resuspended in 50 mM Tris-HCl buffer containing 120 mM NaCl, 5 mM KCl, 2 mM CaCl2 and 1 mM MgCl2 at pH 7.4 for the D1 binding assays and at pH 7.7 with the addition of 6 mM ascorbic acid for the D2 binding assays. Aliquots of this suspension were then added to tubes containing the ligand and either the compound under test or buffer. For the D1 binding assays the ligand was tritiated SCH 23390 and the mixture was incubated at 37° C. for 30 minutes before the incubation was terminated by rapid filtration. For the D2 binding assays the ligand was tritiated (S)-sulpiride and the mixture was incubated at 4° C. for 40 minutes before the incubation was terminated by rapid filtration. Non-specific binding was determined experimentally by the addition of saturating concentrations of chloropromazine or spiroperidol for D1 and D2 receptors respectively.
(§2) The filters were washed with ice-cold Tris-HCl buffer and dried. The filters were punched out on to vials containing scintillation fluid and were left for about 20 hours before being counted by scintillation spectrophotometry. Displacement curves were produced over a range of concentrations of the compound under test and the concentration which gave a 50% inhibition of specific binding (IC50) obtained from the curve. The inhibition coefficient Ki was then calculated using the formula [formula] in which [ligand] is the concentration of the tritiated ligand used and KD is the equilibrium dissociation constant for the ligand.
(§3) In some cases Ki values for D2 binding were estimated from single concentration data by the application of the Langmuir adsorption isotherm equation. These cases are indicated by an "E" in the last two columns of Table I. In other cases it was not possible to determine or estimate the Ki and the Ki value is given as greater than (>) that which would result from the application of the above formula to the highest concentration which displaced ≤50% of the ligand.

Experiment [2] has as its target T2, D2 dopamine receptors (Rattus norvegicus, UniProt P61169).
T2 construct: Striatal samples from the brains of male Charles River CD rats; from tissue; host or cells: striatum of male Charles River CD rats (washed membrane pellet)
Briefly: D2 dopamine receptor binding: inhibition of tritiated (S)-sulpiride binding, rat striatal samples. The conditions noted are these: for Ki: rat striatum, tritiated (S)-sulpiride, pH 7.7, 4° C., 40 minutes, > = from highest concentration which displaced ≤50% of the ligand, read-out: Ki for D2 binding; for Ki for D2 / Ki for D1: ratio to two significant figures. Set-up: species or system rat (male Charles River CD rats). The method, then: as §1, §2, §3

One may read the Ki as a dissociation constant, usually derived from enzyme kinetics or from competition with a known ligand.

T1 sequence (P18901 whole entry): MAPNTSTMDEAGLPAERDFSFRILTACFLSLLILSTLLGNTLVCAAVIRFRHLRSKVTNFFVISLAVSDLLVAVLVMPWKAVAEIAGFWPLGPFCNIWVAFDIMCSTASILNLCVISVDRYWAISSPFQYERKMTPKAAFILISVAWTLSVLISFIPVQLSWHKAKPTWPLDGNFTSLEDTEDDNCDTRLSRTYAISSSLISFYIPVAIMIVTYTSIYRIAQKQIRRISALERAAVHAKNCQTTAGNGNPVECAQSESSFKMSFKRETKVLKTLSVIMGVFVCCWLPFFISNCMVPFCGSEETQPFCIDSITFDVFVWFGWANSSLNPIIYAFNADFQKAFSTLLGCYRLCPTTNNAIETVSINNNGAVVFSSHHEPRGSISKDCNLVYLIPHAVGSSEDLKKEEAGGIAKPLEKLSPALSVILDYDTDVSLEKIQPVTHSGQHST
T2 sequence (P61169 whole entry): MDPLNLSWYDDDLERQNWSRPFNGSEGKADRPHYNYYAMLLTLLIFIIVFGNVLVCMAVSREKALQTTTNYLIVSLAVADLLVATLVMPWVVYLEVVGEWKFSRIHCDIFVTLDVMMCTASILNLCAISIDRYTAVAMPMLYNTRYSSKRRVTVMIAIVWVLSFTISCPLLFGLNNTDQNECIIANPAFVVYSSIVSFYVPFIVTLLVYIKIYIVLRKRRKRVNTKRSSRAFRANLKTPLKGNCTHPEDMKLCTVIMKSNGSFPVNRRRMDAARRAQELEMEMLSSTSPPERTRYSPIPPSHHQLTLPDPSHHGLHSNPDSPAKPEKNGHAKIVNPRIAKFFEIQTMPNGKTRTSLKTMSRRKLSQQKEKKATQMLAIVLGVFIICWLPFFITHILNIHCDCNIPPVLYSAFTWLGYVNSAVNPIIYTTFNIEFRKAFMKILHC

For the compound `CN1CCc2cc(O)c(O)cc2C1C1(c2ccccc2Br)CCC1` (single isomer, unassigned; (+)) [Example 60, (+)-1-[1-(2-bromo-phenyl)cyclobutyl] -6,7-dihydroxy-2-methyl-1,2,3,4-tetrahydroisoquinoline], the inhibition constant (Ki) is 0.0028 µM in experiment [1] and 2 µM in experiment [2]. Further, the “Ki for D2 / Ki for D1” value in experiment [2] stood at 710.
On to `CN1CCc2cc(F)c(O)cc2C1C1(c2ccccc2Cl)CC1` (single isomer, unassigned; (+)) [Example 62, (+)-1-[1-(2-chlorophenyl)cyclopropyl]-6-fluoro-7-hydroxy-2-methyl-1,2,3,4-tetrahydroisoquinoline], for which the Ki in experiment [1] stood at 0.00038 µM. Besides, in experiment [2], the Ki stood at 0.41 µM and the “Ki for D2 / Ki for D1” value is on record as 1100.
For `CN1CCc2cc(F)c(O)cc2C1C1(c2ccccc2Cl)CCC1` (single isomer, unassigned; (+)) [Example 64, (+)-1-[1-(2-chlorophenyl)cyclobutyl]-6-fluoro-7-hydroxy-2-methyl-1,2,3,4-tetrahydroisoquinoline], in that order: 0.0024 µM, 4.8 µM and 2000.
The compound `COc1cc2c(cc1O)C(C1(c3ccccc3Cl)CC1)N(C)CC2` (single isomer, unassigned; (+)) [Example 77, (+)-1-[1-(2-chlorophenyl)cyclopropyl]-7-hydroxy-6-methoxy-2-methyl-1,2,3,4-tetrahydroisoquinoline] gave a Ki in experiment [1] of 0.00028 µM. Besides, in experiment [2], the Ki came to 0.9 µM and the “Ki for D2 / Ki for D1” value worked out at 3200.
`Cc1cc2c(cc1O)C(C1(c3ccccc3Cl)CC1)N(C)CC2` (single isomer, unassigned; (+)) [Example 80, (+)-1-[1-(2-chlorophenyl)cyclopropyl]-7-hydroxy-2,6-dimethyl-1,2,3,4-tetrahydroisoquinoline] yielded a Ki in experiment [1] of 0.00067 µM. Also, in experiment [2], the inhibitory constant (Ki) was determined as 0.37 µM and the “Ki for D2 / Ki for D1” value was found to be 550.
As for `COc1cc2c(cc1O)C(C1(c3ccccc3Cl)CC1)N(C)CC2` (single isomer, unassigned; (+)) [Example 85, (+)-1-[1-(2-chlorophenyl)cyclopropyl]-7-hydroxy-6-methoxy-2-methyl-1,2,3,4-tetrahydroisoquinoline], the affinity in experiment [1], expressed as Ki, was 0.00028 µM. For the same compound, in experiment [2], the Ki was 0.9 µM and the “Ki for D2 / Ki for D1” value was 3200.
For the compound `CN1CCc2cc(Cl)c(O)cc2C1C1(c2ccccc2)CCC1` (single isomer, unassigned; (-)) [Example 59, (-)-6-chloro-7-hydroxy-2-methyl-1-(1-phenylcyclobutyl)-1,2,3,4-tetrahydroisoquinoline], the inhibitory constant (Ki) in experiment [1] was determined as 0.0052 µM; in experiment [2], 3.2 µM. Besides, in experiment [2], the “Ki for D2 / Ki for D1” value stood at 620.
`CN1CCc2cc(O)c(O)cc2C1C1(c2ccccc2Br)CCC1` (stereo not drawn) [Example 1, 1-[1-(2-bromophenyl)cyclobutyl]-6,7-dihydroxy-2-methyl-1,2,3,4-tetrahydroisoquinoline] yielded an inhibition constant (Ki) in experiment [1] of 0.004 µM. In experiment [2], the inhibition constant Ki worked out at 1 µM and the “Ki for D2 / Ki for D1” value turned out to be 250.
For `CN1CCc2cc(O)c(O)cc2C1C1(c2ccccc2Cl)CCC1` (stereo not drawn) [Example 2, 1-[1-(2-chlorophenyl)cyclobutyl]-6,7-dihydroxy-2-methyl-1,2,3,4-tetrahydroisoquinoline], in that order: 0.0072 µM, 12 µM and 1700.
As to `CN1CCc2cc(O)c(O)cc2C1C1(c2ccc(F)cc2)CCC1` (stereo not drawn) [Example 3, 1-[1-(4-fluorophenyl)cyclobutyl]-6,7-dihydroxy-2-methyl-1,2,3,4-tetrahydroisoquinoline], the inhibitory constant (Ki) in experiment [1] was 0.022 µM. Moreover, in experiment [2], the inhibition constant Ki was determined as 6100 µM and the “Ki for D2 / Ki for D1” value stood at 280000.
As for `Cc1ccccc1C1(C2c3cc(O)c(O)cc3CCN2C)CCC1` (stereo not drawn) [Example 4, 6,7-dihydroxy-2-methyl-1-[1-(o-tolyl)cyclobutyl]-1,2,3,4-tetrahydroisoquinoline], affinity in experiment [1] was put at a Ki of 0.029 µM. Also, in experiment [2], the inhibition constant Ki turned out to be 260 µM and the “Ki for D2 / Ki for D1” value stood at 9000.
On to `CN1CCc2cc(F)c(O)cc2C1C1(c2ccc(Cl)cc2)CCC1` (stereo not drawn) [Example 5, 1-[1-(4-chlorophenyl)cyclobutyl]-6-fluoro-7-hydroxy-2-methyl-1,2,3,4-tetrahydroisoquinoline], for which affinity in experiment [1] was put at a Ki of 0.0083 µM. For the same compound, in experiment [2], the Ki was determined as 32 µM and the “Ki for D2 / Ki for D1” value stood at 3900.
In the same order, the values of `CN1CCc2cc(F)c(O)cc2C1C1(c2ccc(Br)cc2)CCC1` (stereo not drawn) [Example 6, 1-[1-(4-bromophenyl)cyclobutyl]-6-fluoro-7-hydroxy-2-methyl-1,2,3,4-tetrahydroisoquinoline] are 0.003 µM, 41 µM and 14000.
In the same order, the values of `CN1CCc2cc(O)c(O)cc2C1C1(c2ccccc2F)CCC1` (stereo not drawn) [Example 7, 1-[1-(2-fluorophenyl)cyclobutyl]-6,7-dihydroxy-2-methyl-1,2,3,4-tetrahydroisoquinoline] are 0.021 µM, 2.9 µM and 140.
Regarding `CN1CCc2cc(O)c(O)cc2C1C1(c2cccc(C(F)(F)F)c2)CCC1` (stereo not drawn) [Example 8, 6,7-dihydroxy-2-methyl-1-[1-(3-trifluoromethylphenyl)cyclobutyl]-1,2,3,4-tetrahydroisoquinoline], in experiment [1], the Ki came to 0.31 µM. Further, in experiment [2], the Ki was over 5 µM and the “Ki for D2 / Ki for D1” value is listed as over 16.
In the same order, the values of `CN1CCc2cc(F)c(O)cc2C1C1(c2ccc(Cl)cc2Cl)CCC1` (stereo not drawn) [Example 9, 1-[1-(2,4-dichlorophenyl)cyclobutyl]-6-fluoro-7-hydroxy-2-methyl-1,2,3,4-tetrahydroisoquinoline] are 0.0019 µM, 1.8 µM and 950.
In the same order, the values of `Cc1cc2c(cc1O)C(C1(c3ccccc3Cl)CCC1)N(C)CC2` (stereo not drawn) [Example 10, 1-[1-(2-chlorophenyl)cyclobutyl]-7-hydroxy-2,6-dimethyl-1,2,3,4-tetrahydroisoquinoline] are 0.0016 µM, 2.5 µM and 1600.
In the case of `CN1CCc2cc(-c3ccccc3)c(O)cc2C1C1(c2ccccc2Cl)CCC1` (stereo not drawn) [Example 11, 1-[1-(2-chlorophenyl)cyclobutyl]-7-hydroxy-2-methyl-6-phenyl-1,2,3,4-tetrahydroisoquinoline], the results for the Ki in experiment [1] and in experiment [2] were 0.15 µM and 3.5 µM, respectively. Also, the “Ki for D2 / Ki for D1” value in experiment [2] was found to be 23.
The compound `CN1CCc2ccc(O)cc2C1C1(c2ccccc2Cl)CC1` (stereo not drawn) [Example 12, 1-(1-(2-chlorophenyl)cyclopropyl)-7-hydroxy-2-methyl-1,2,3,4-tetrahydroisoquinoline] registered a Ki in experiment [1] of 0.0014 µM. Besides, in experiment [2], the Ki came to 0.71 µM and the “Ki for D2 / Ki for D1” value came out at 510.
In experiment [1], `CN1CCc2cc(O)c(O)cc2C1C1(c2ccc(Cl)cc2)CC1` (stereo not drawn) [Example 13, 1-[1-(4-chlorophenyl)cyclopropyl]-6,7-dihydroxy-2-methyl-1,2,3,4-tetrahydroisoquinoline] had a Ki of 0.044 µM. Also, in experiment [2], the inhibition constant Ki came to 3.7 µM and the “Ki for D2 / Ki for D1” value turned out to be 84.

The record behind these values is patent publication US5519034A, “Tetraisoquinoline compounds which have useful pharmaceutical utility” (The Boots Company PLC, priority 1991, dated 1996).
